Article PMC12657942, “Measurement and modeling of rizatriptan in supercritical CO2 for pharmaceutical processing” (Scientific Reports, 2025)
Converted amounts (≈) assume the structure as drawn.

Columns and labels:
[1] = Enthalpies (total, vaporization, solvation) derived from density-based solubility models; format: physicochemical; details: SC-CO2
Protocol: This study thoroughly examines the solubility of rizatriptan in SC-CO2 for pharmaceutical processing by supercritical fluid technology. A series of experimental solubility measurements were conducted at a range of temperatures, from 308.2 to 338.2 K, and pressures ranging from 12 to 30 megapascals. Seven density-based models ( Chrastil, Bartle, K–J, Méndez–Santiago–Teja, Bian et al., and Sodeifian et al. (Ⅰ and Ⅱ)) and three equations of state (Peng–Robinson, Soave–Redlich–Kwong, and regular solution) were employed to analyze the resulting data. Additionally, the enthalpies of the total, vaporization, and solvation processes were derived to elucidate phase behavior.
This leads to the logarithmic relationship, where the enthalpy term combines solvation and vaporization effects
The Bartle model extends the concept by normalizing solubility with pressure and using a reduced density term, allowing direct estimation of the solute’s heat of vaporization from parameter. […] The MST model was derived from a Taylor expansion of the Helmholtz free energy near the solvent’s critical point, focusing on infinite dilution behavior. By incorporating the Clausius–Clapeyron equation for missing sublimation pressure data, it becomes a robust three-parameter tool. It excels in self-consistency checks, where plotting ) against density (ρ), should yield a single line for reliable data. […]

[2] = Preliminary tests of equilibration time for solubility in SC-CO2 (Table S1); format: physicochemical; details: supercritical CO2, 65 °C, organic solvent or mixture, thermodynamic from solid, read-out: Solubility (preliminary test)
Protocol: (§1) A specialized high-pressure system is employed to measure the solubility of rizatriptan using gravimetric techniques in a supercritical CO2[6]. A 200 mL vessel capable of withstanding pressures up to 35 MPa and temperatures up to 423 K is prepared with leak-free seals, valves, and fittings. All valves and connectors were 1/8 inch in size. The system’s pressure and temperature sensors are calibrated for accuracy. Next, 2000 mg of rizatriptan powder is weighed precisely using an analytical balance with 0.01 mg of sensitivity. The powder is then compacted into 5-mm diameter tablets to ensure uniformity and structural integrity. The tablets are placed in a basket inside the vessel to maximize their exposure to SC-CO2. CO2 is introduced gradually using a high-precision pump (SC-1000, SUPEREX), with the pressure increased in 0.05 MPa increments to maintain stability. The pressure is monitored and held within ± 0.01 MPa. Temperature is controlled within ± 0.1 K using a thermocouple, and the mixture is stirred at 250 rpm to ensure uniformity. […] The pressure and temperature indicators are checked to ensure stability. After equilibration, the vessel is carefully depressurized to ambient conditions to halt dissolution without losing the sample. The remaining tablets are then removed and cleaned of residual CO2. If needed, they are dried in a desiccator. The undissolved drug is weighed using a high-precision balance. The experiment is replicated at least three times to calculate the mean solubility and standard deviation. The following formula was used to calculate the mass of dissolved rizatriptan:1
Table S1. Preliminary tests.

[3] = parameters: method as in PMID 36559181, doi:10.1007/s40005-015-0206-z, PMID 20582194, PMID 10551439; details: conventional oral tablets; cited from earlier work
[4] = Solubility of rizatriptan in supercritical CO2, static gravimetric method; format: physicochemical
Protocol: as §1
Include the molecular weights of rizatriptan ([…]) and CO2 (44.01 g/mol) in the mole fraction calculations.2 3 4 5
The measurements were conducted at four isotherms (308.2 K, 318.2 K, 328.2 K, and 338.2 K) and […] pressure points (12, 15, 18, 21, 24, 27, 30 MPa). Table 3 documents the experimental conditions, including temperature, pressure, SC-CO2 density, mole fraction, standard deviation, and solubility in grams per liter.

enthalpy of vaporization [1]: 12.08 kcal/mol
overall (total) enthalpy [1]: 9.097 kcal/mol
solubility at 60 min ([2]; T 338, P 30, Time 60): 78.8 ± 0.7 µg/mL (≈ 293 µM)
solubility at 90 min ([2]; T 338, P 30, Time 90): 167.6 ± 0.8 µg/mL (≈ 622 µM)
solubility at 120 min ([2]; T 338, P 30, Time 120): 212.9 ± 0.8 µg/mL (≈ 790 µM)
solubility at 150 min ([2]; T 338, P 30, Time 150): 279 ± 1.1 µg/mL (≈ 1040 µM)
solubility at 180 min ([2]; T 338, P 30, Time 180): 285.8 ± 1.2 µg/mL (≈ 1060 µM)
solubility at 210 min ([2]; T 338, P 30, Time 210): 301.8 ± 1.4 µg/mL (≈ 1120 µM)
solubility at 240 min ([2]; T 338, P 30, Time 240): 301.8 ± 1.5 µg/mL (≈ 1120 µM)
mole fraction in SC-CO2 ([4]; 308.2 K, 12 MPa): 0.09 × 10^−4
mole fraction in SC-CO2 ([4]; 308.2 K, 30 MPa): 0.286 × 10^−4
mole fraction in SC-CO2 ([4]; 328.2 K, 12 MPa): 0.45 × 10^−5
mole fraction in SC-CO2 ([4]; 328.2 K, 30 MPa): 3.80 × 10^−5
mole fraction in SC-CO2 ([4]; 338.2 K, 12 MPa): 0.024 × 10^−4
mole fraction in SC-CO2 ([4]; 338.2 K, 30 MPa): 0.419 × 10^−4
mole fraction y in SC-CO2 ([4]; 338.2 K, 30 MPa): 4.19 × 10^−5
Experimental mole fraction (y) in supercritical carbon dioxide, y × 10^4 ([4]; T 308.0 K (text 308.2 K), P 12 MPa, ρCO2 768.52 kg/m^3): 0.090 × 10^4
Experimental mole fraction (y) in supercritical carbon dioxide, y × 10^4 ([4]; T 308.0 K (text 308.2 K), P 15 MPa, ρCO2 816.10 kg/m^3): 0.121 × 10^4
Experimental mole fraction (y) in supercritical carbon dioxide, y × 10^4 ([4]; T 308.0 K (text 308.2 K), P 18 MPa, ρCO2 816.10 kg/m^3): 0.141 × 10^4
Experimental mole fraction (y) in supercritical carbon dioxide, y × 10^4 ([4]; T 308.0 K (text 308.2 K), P 21 MPa, ρCO2 874.55 kg/m^3): 0.177 × 10^4
Experimental mole fraction (y) in supercritical carbon dioxide, y × 10^4 ([4]; T 308.0 K (text 308.2 K), P 24 MPa, ρCO2 895.66 kg/m^3): 0.227 × 10^4
Experimental mole fraction (y) in supercritical carbon dioxide, y × 10^4 ([4]; T 308.0 K (text 308.2 K), P 27 MPa, ρCO2 913.70 kg/m^3): 0.258 × 10^4
Experimental mole fraction (y) in supercritical carbon dioxide, y × 10^4 ([4]; T 308.0 K (text 308.2 K), P 30 MPa, ρCO2 929.85 kg/m^3): 0.286 × 10^4
Experimental mole fraction (y) in supercritical carbon dioxide, y × 10^4 ([4]; T 318.0 K (text 318.2 K), P 12 MPa, ρCO2 659.80 kg/m^3): 0.069 × 10^4
Experimental mole fraction (y) in supercritical carbon dioxide, y × 10^4 ([4]; T 318.0 K (text 318.2 K), P 15 MPa, ρCO2 743.83 kg/m^3): 0.126 × 10^4
Experimental mole fraction (y) in supercritical carbon dioxide, y × 10^4 ([4]; T 318.0 K (text 318.2 K), P 18 MPa, ρCO2 790.29 kg/m^3): 0.162 × 10^4
Experimental mole fraction (y) in supercritical carbon dioxide, y × 10^4 ([4]; T 318.0 K (text 318.2 K), P 21 MPa, ρCO2 823.80 kg/m^3): 0.215 × 10^4
Experimental mole fraction (y) in supercritical carbon dioxide, y × 10^4 ([4]; T 318.0 K (text 318.2 K), P 24 MPa, ρCO2 850.15 kg/m^3): 0.281 × 10^4
Experimental mole fraction (y) in supercritical carbon dioxide, y × 10^4 ([4]; T 318.0 K (text 318.2 K), P 27 MPa, ρCO2 872.14 kg/m^3): 0.322 × 10^4
Experimental mole fraction (y) in supercritical carbon dioxide, y × 10^4 ([4]; T 318.0 K (text 318.2 K), P 30 MPa, ρCO2 890.90 kg/m^3): 0.339 × 10^4
Experimental mole fraction (y) in supercritical carbon dioxide, y × 10^4 ([4]; T 328.0 K (text 328.2 K), P 12 MPa, ρCO2 506.75 kg/m^3): 0.045 × 10^4
Experimental mole fraction (y) in supercritical carbon dioxide, y × 10^4 ([4]; T 328.0 K (text 328.2 K), P 15 MPa, ρCO2 654.94 kg/m^3): 0.099 × 10^4
Experimental mole fraction (y) in supercritical carbon dioxide, y × 10^4 ([4]; T 328.0 K (text 328.2 K), P 18 MPa, ρCO2 724.13 kg/m^3): 0.176 × 10^4
Experimental mole fraction (y) in supercritical carbon dioxide, y × 10^4 ([4]; T 328.0 K (text 328.2 K), P 21 MPa, ρCO2 768.74 kg/m^3): 0.241 × 10^4
Experimental mole fraction (y) in supercritical carbon dioxide, y × 10^4 ([4]; T 328.0 K (text 328.2 K), P 24 MPa, ρCO2 801.92 kg/m^3): 0.302 × 10^4
Experimental mole fraction (y) in supercritical carbon dioxide, y × 10^4 ([4]; T 328.0 K (text 328.2 K), P 27 MPa, ρCO2 828.51 kg/m^3): 0.353 × 10^4
SMILES: CN(C)CCc1c[nH]c2ccc(Cn3cncn3)cc12 [Rizatriptan, Rizatriptan benzoate]
bioavailability [3]: 40–45%
